Literature values, collected in patent US9072754B2, “Process for obtaining non-allergic propolis” (MR. GIUSEPPE MARIA RICCHIUTO, priority 2010, dated 2015).

Settings: among the compounds of the LB-1 fraction of propolis; literature

In the case of `CC(C)=CCOC(=O)/C=C/c1ccc(O)c(O)c1` [3-methyl-2-butenyl-caffeate, 3-methyl-2-butenyl caffeate], the allergenic effect is given as “the most allergenic effect”.
